According to EPA's CvTdb concentration-time database:

Assays:
Assay in all cases: concentration in plasma after dosing
Rat [1] = details: dosed: Dibromoacetic acid, 25 mg/kg, oral, Male, Harlan Sprague Dawley
Rat [2] = details: dosed: Dibromoacetic acid, 10 mg/kg, iv, Male, F344
Rat [3] = details: 5 min; dosed: Dibromoacetic acid; 25 mg/kg; oral; Male; Harlan Sprague Dawley
Rat [4] = details: dosed: Dibromoacetic acid, 25 mg/kg, oral, Male, Harlan Sprague Dawley; remark: listed apart in the source
Rat [5] = details: 40 min; dosed: Dibromoacetic acid; 10 mg/kg; iv; Male; F344
Rat [6] = details: 5 min; dosed: Dibromoacetic acid; 25 mg/kg; oral; Male; Harlan Sprague Dawley; remark: listed apart in the source
Rat [7] = details: dosed: Dibromoacetic acid, 25 mg/kg, oral, Male, Harlan Sprague Dawley; remark: listed apart in the source
Rat [8] = details: dosed: Dibromoacetic acid, 25 mg/kg, oral, Male, Harlan Sprague Dawley; remark: listed apart in the source
Rat [9] = details: 0.5 h; dosed: Dibromoacetic acid; 25 mg/kg; oral; Male; Harlan Sprague Dawley
Rat [10] = details: dosed: Dibromoacetic acid, 25 mg/kg, oral, Male, Harlan Sprague Dawley; remark: listed apart in the source
Rat [11] = details: dosed: Dibromoacetic acid, 25 mg/kg, oral, Female, Harlan Sprague Dawley
Rat [12] = details: dosed: Dibromoacetic acid, 25 mg/kg, oral, Male, Harlan Sprague Dawley; remark: listed apart in the source
Rat [13] = details: dosed: Dibromoacetic acid, 25 mg/kg, oral, Male, Harlan Sprague Dawley; remark: listed apart in the source
Rat [14] = details: 0.5 h; dosed: Dibromoacetic acid; 25 mg/kg; oral; Male; Harlan Sprague Dawley; remark: listed apart in the source
Rat [15] = details: 5 min; dosed: Dibromoacetic acid; 50 mg/kg; oral; Female; Harlan Sprague Dawley
Rat [16] = details: dosed: Dibromoacetic acid, 25 mg/kg, oral, Male, Harlan Sprague Dawley; remark: listed apart in the source
Rat [17] = details: 20 min; dosed: Dibromoacetic acid; 10 mg/kg; iv; Male; F344
Rat [18] = details: dosed: Dibromoacetic acid, 25 mg/kg, oral, Male, Harlan Sprague Dawley; remark: listed apart in the source
Rat [19] = details: dosed: Dibromoacetic acid, 10 mg/kg, iv, Male, F344; remark: listed apart in the source
Rat [20] = details: dosed: Dibromoacetic acid, 25 mg/kg, oral, Male, Harlan Sprague Dawley; remark: listed apart in the source
Rat [21] = details: 0.5 h; dosed: Dibromoacetic acid; 25 mg/kg; oral; Male; Harlan Sprague Dawley; remark: listed apart in the source
Rat [22] = details: 5 min; dosed: Dibromoacetic acid; 25 mg/kg; oral; Male; Harlan Sprague Dawley; remark: listed apart in the source
Rat [23] = details: dosed: Dibromoacetic acid, 25 mg/kg, oral, Male, Harlan Sprague Dawley; remark: listed apart in the source
Rat [24] = details: 0.5 h; dosed: Dibromoacetic acid; 25 mg/kg; oral; Male; Harlan Sprague Dawley; remark: listed apart in the source
Rat [25] = details: dosed: Dibromoacetic acid, 25 mg/kg, oral, Male, Harlan Sprague Dawley; remark: listed apart in the source
Rat [26] = details: dosed: Dibromoacetic acid
Rat [27] = details: dosed: Dibromoacetic acid, 10 mg/kg, iv, Male, F344; remark: listed apart in the source
Rat [28] = details: dosed: Dibromoacetic acid, 25 mg/kg, oral, Male, Harlan Sprague Dawley; remark: listed apart in the source
Rat [29] = details: dosed: Dibromoacetic acid, 25 mg/kg, oral, Male, Harlan Sprague Dawley; remark: listed apart in the source
Rat [30] = details: 5 min; dosed: Dibromoacetic acid; 25 mg/kg; oral; Male; Harlan Sprague Dawley; remark: listed apart in the source
Rat [31] = details: dosed: Dibromoacetic acid, 25 mg/kg, oral, Male, Harlan Sprague Dawley; remark: listed apart in the source
Rat [32] = details: 10 min; dosed: Dibromoacetic acid; 10 mg/kg; iv; Male; F344
Rat [33] = details: dosed: Dibromoacetic acid, 25 mg/kg, oral, Female, Harlan Sprague Dawley; remark: listed apart in the source
Rat [34] = details: dosed: Dibromoacetic acid, 10 mg/kg, iv, Male, F344; remark: listed apart in the source
Rat [35] = details: dosed: Dibromoacetic acid, 25 mg/kg, oral, Male, Harlan Sprague Dawley; remark: listed apart in the source
Rat [36] = details: 5 min; dosed: Dibromoacetic acid; 50 mg/kg; oral; Female; Harlan Sprague Dawley; remark: listed apart in the source
Rat [37] = details: 10 min; dosed: Dibromoacetic acid; 10 mg/kg; iv; Male; F344; remark: listed apart in the source
Rat [38] = details: dosed: Dibromoacetic acid, 110 mg/kg, iv, Female, Harlan Sprague-Dawley
Rat [39] = details: dosed: Dibromoacetic acid, 50 mg/kg, oral, Female, Harlan Sprague Dawley
Rat [40] = details: dosed: Dibromoacetic acid, 25 mg/kg, oral, Male, Harlan Sprague Dawley; remark: listed apart in the source
Rat [41] = details: 20 min; dosed: Dibromoacetic acid; 10 mg/kg; iv; Male; F344; remark: listed apart in the source
Rat [42] = details: 40 min; dosed: Dibromoacetic acid; 10 mg/kg; iv; Male; F344; remark: listed apart in the source
Rat [43] = details: dosed: Dibromoacetic acid, 110 mg/kg, iv, Female, Harlan Sprague-Dawley; remark: listed apart in the source
Rat [44] = details: dosed: Dibromoacetic acid, 110 mg/kg, iv, Female, Harlan Sprague-Dawley; remark: listed apart in the source
Rat [45] = details: 5 min; dosed: Dibromoacetic acid; 25 mg/kg; oral; Male; Harlan Sprague Dawley; remark: listed apart in the source

O=C(O)C(Br)Br [Dibromoacetic acid]
Details | concentration in plasma [ng/mL]
Rat [1], 3 h | 1720
Rat [1], 10 min | 853
Rat [2], 1 h | 186
Rat [2], 2 min | 28800
Rat [4], 1.5 h | 1550
Rat [4], 20 min | 13500
Rat [7], 1 h | 8050
Rat [7], 2 h | 1280
Rat [8], 3 h | 646
Rat [8], 10 min | 5770
Rat [10], 1 h | 8770
Rat [10], 2 h | 1770
Rat [11], 1 h | 8860
Rat [11], 2 h | 1240
Rat [12], 0.75 h | 10200
Rat [12], 4 h | 1540
Rat [13], 1.5 h | 1460
Rat [13], 20 min | 13200
Rat [16], 1.5 h | 1560
Rat [16], 20 min | 24200
Rat [18], 0.75 h | 8790
Rat [18], 4 h | 592
Rat [19], 1 h | 208
Rat [19], 2 min | 28100
Rat [20], 0.5 h | 15000
Rat [20], 6 h | 466
Rat [23], 3 h | 129
Rat [23], 10 min | 12100
Rat [25], 3 h | 476
Rat [25], 10 min | 6890
Rat [27], 1.25 h | 301
Rat [27], 5 min | 12000
Rat [28], 1.5 h | 3340
Rat [28], 20 min | 10700
Rat [29], 1.5 h | 2030
Rat [29], 20 min | 20900
Rat [31], 3 h | 1620
Rat [31], 10 min | 1880
Rat [33], 1 h | 8120
Rat [33], 2 h | 887
Rat [34], 1.25 h | 101
Rat [34], 5 min | 14500
Rat [35], 0.75 h | 6410
Rat [35], 4 h | 772
Rat [38], 2 h | 4660
Rat [38], 3 h | 459
Rat [39], 3 h | 2050
Rat [39], 10 min | 9980
Rat [40], 0.75 h | 10300
Rat [40], 4 h | 772
Rat [43], 1.5 h | 17600
Rat [43], 2 h | 5370
Rat [44], 1.5 h | 20900
Rat [44], 3 h | 472

Details | concentration in plasma [ng/mL]
Rat [3] | 1630
Rat [5] | 607
Rat [6] | 3390
Rat [9] | 8900
Rat [14] | 13500
Rat [15] | 4030
Rat [17] | 2540
Rat [21] | 12600
Rat [22] | 294
Rat [24] | 7630
Rat [30] | 2210
Rat [32] | 6230
Rat [36] | 2800
Rat [37] | 7190
Rat [41] | 1890
Rat [42] | 498
Rat [45] | 238

concentration in plasma [ng/mL], Rat [26]
Details | Female | Male
0.5 h, 25 mg/kg, oral, Harlan Sprague Dawley | – | 10800
0.75 h, 25 mg/kg, oral, Harlan Sprague Dawley | 8910 | 11500
1 h, 10 mg/kg, iv, F344 | – | 262
1 h, 25 mg/kg, oral, Harlan Sprague Dawley | 6860 | 8310
1.25 h, 10 mg/kg, iv, F344 | – | 97.1
1.5 h, 10 mg/kg, iv, F344 | – | 175
1.5 h, 25 mg/kg, oral, Harlan Sprague Dawley | – | 2000
1.5 h, 110 mg/kg, iv, Harlan Sprague-Dawley | 21600 | –
2 h, 25 mg/kg, oral, Harlan Sprague Dawley | 1460 | 1850
2 h, 110 mg/kg, iv, Harlan Sprague-Dawley | 4710 | –
2 min, 10 mg/kg, iv, F344 | – | 31000
3 h, 25 mg/kg, oral, Harlan Sprague Dawley | – | 751
3 h, 50 mg/kg, oral, Harlan Sprague Dawley | 1930 | –
3 h, 110 mg/kg, iv, Harlan Sprague-Dawley | 405 | –
4 h, 25 mg/kg, oral, Harlan Sprague Dawley | 966 | 106
5 min, 10 mg/kg, iv, F344 | – | 11500
5 min, 25 mg/kg, oral, Harlan Sprague Dawley | – | 411
5 min, 50 mg/kg, oral, Harlan Sprague Dawley | 8050 | –
6 h, 25 mg/kg, oral, Harlan Sprague Dawley | – | 109
10 min, 10 mg/kg, iv, F344 | – | 5230
10 min, 25 mg/kg, oral, Harlan Sprague Dawley | – | 4010
10 min, 50 mg/kg, oral, Harlan Sprague Dawley | 13500 | –
20 min, 10 mg/kg, iv, F344 | – | 2810
20 min, 25 mg/kg, oral, Harlan Sprague Dawley | – | 17200
40 min, 10 mg/kg, iv, F344 | – | 544
